The values that follow come from patent publication US9102648B1, “Bioavailable diacylhydrazine ligands for modulating the expression of exogenous genes via an ecdysone receptor complex” (Intrexon Corporation, priority 2003, dated 2015).

In general, EC50 refers to the concentration that produces a half-maximal response.

This data set addresses GAL4 DBD (1-147)-CfEcR(DEF)/VP16AD-βRXREF-LmUSPEF (Choristoneura fumiferana, UniProt O77240). Briefly: cell-based. As to conditions: for Fold Induction, 27-63 Assay, 3.3 uM: 3.3 uM ligand; for Fold Induction, 27-63 Assay, 3.3 uM / Fold Induction, 27-63 Assay, 33 uM: RLU ligand treated / RLU DMSO treated cells; for Fold Induction, 27-63 Assay, 33 uM: 33 uM ligand; for 27-63 assay Rel Max FI: maximum fold induction at any concentration relative to that of GS-E ligand, CHO 27-63 cells; for fold induction at 3.3 µM: read-out: Fold Induction, 27-63 Assay, 3.3 uM; for fold induction at 33 µM: read-out: Fold Induction, 27-63 Assay, 33 uM.

The mark [1] stands for this setting: read-out: 27-63 assay EC50, CHO 27-63 stable cell line, luciferase reporter, average of two wells.

SMILES strings stand for the structures. Where two headings read alike, the source gives them in different places.

With `CCc1c(OC)cccc1C(=O)NN(C(=O)c1cc(Cl)ccc1[N+](=O)[O-])C(C)(C)C` [RG-115257], the “27-63 assay Rel Max FI” value came to 0.663. Besides, under “average of two wells”, the “Fold Induction, 27-63 Assay, 3.3 uM” value is 1130 and the “Fold Induction, 27-63 Assay, 33 uM” value is 1320. The concentration giving a half-maximal response (EC50) under setting [1] came to 698 nM.
For `CCc1c(OC)cccc1C(=O)NN(C(=O)c1cc(C)cc(C)c1)C(C)(C)C=NO` [RG-115258, 2-ethyl-3-methoxy-benzoic acid N′-(3,5-dimethyl-benzoyl)-N′-(2-hydroxyimino-1,1-dimethyl-ethyl)-hydrazide], the EC50 was 1880 nM, the “27-63 assay Rel Max FI” value stood at 1.279, the fold induction at 3.3 µM worked out at 1970 and the fold induction at 33 µM came out at 2210.
As for `Cc1c(C(=O)NN(C(=O)c2cccc(F)c2)C(C)(C)C)ccc2c1CCCO2` [RG-115278], the “27-63 assay Rel Max FI” value amounted to 0.720. Besides, for the setting “average of two wells”, the “Fold Induction, 27-63 Assay, 3.3 uM” value is listed as 1250 and the “Fold Induction, 27-63 Assay, 33 uM” value stood at 906. The concentration giving a half-maximal response (EC50) under setting [1] amounted to 885 nM.
In the same order, the values of `CCc1c(C(=O)NN(C(=O)c2ccc(F)c(C(F)(F)F)c2)C(C)(C)C)ccc2c1OCCO2` [RG-115280] are 0.254, 9, 422 and 11000 nM.
In the same order, the values of `CCc1c(C(=O)NN(C(=O)c2cc(Cl)nc(Cl)c2)C(C)(C)C)ccc2c1OCCO2` [RG-115297] are 0.986, 1544, 946 and 330 nM.
In the same order, the values of `CCc1c(OC)cccc1C(=O)NN(C(=O)c1cc(F)c(Cl)cc1Cl)C(C)(C)C` [RG-115302] are 0.521, 940, 815 and 1040 nM.
For `COc1cccc(C(=O)NN(C(=O)c2cc(C)cc(C)c2)C(C)(C)C)c1N` [RG-115378], the “27-63 assay Rel Max FI” value turned out to be 0.863. Moreover, for the setting “average of two wells”, the “Fold Induction, 27-63 Assay, 3.3 uM” value was determined as 1493 and the “Fold Induction, 27-63 Assay, 33 uM” value turned out to be 1407. Also, the EC50 under setting [1] was found to be 758 nM.
In the same order, the values of `Cc1ccc([N+](=O)[O-])c(C(=O)N(NC(=O)c2ccc3c(c2C)OCCO3)C(C)(C)C)c1` [RG-115384] are 0.645, 1713, 1282 and 113 nM.
`CCc1c(OC)cccc1C(=O)NN(C(=O)c1cc(C)cc(C)c1)C(C)(C)C=O` [RG-115407, 2-ethyl-3-methoxy-benzoic acid N′-(3,5-dimethyl-benzoyl)-N′-(1,1-dimethyl-2-oxo-ethyl)-hydrazide]: the midpoint of the response, the EC50, lay at 1060 nM; the “27-63 assay Rel Max FI” value is 0.932; the fold induction at 3.3 µM was 1610; the fold induction at 33 µM stood at 1520.
Regarding `Cc1c(C(=O)NN(C(=O)c2ccc(F)c(F)c2)C(C)(C)C)ccc2c1CCCO2` [RG-115416], the “27-63 assay Rel Max FI” value stood at 0.721. For the setting “average of two wells”, the “Fold Induction, 27-63 Assay, 3.3 uM” value stood at 2412 and the “Fold Induction, 27-63 Assay, 33 uM” value stood at 1867. Besides, the EC50 under setting [1] was 637 nM.
In the same order, the values of `Cc1ccc(F)c(C(=O)N(NC(=O)c2ccc3c(c2C)CCCO3)C(C)(C)C)c1` [RG-115499] are 0.705, 2092, 1536 and 336 nM.
In the same order, the values of `CCc1c(C(=O)NN(C(=O)c2cc(F)ccc2F)C(C)(C)C)ccc2c1OCCO2` [RG-115508] are 0.719, 1195, 969 and 1030 nM.
In the same order, the values of `CCc1c(OC)cccc1C(=O)NN(C(=O)c1cc(C)cc(C)c1)C(C)(C)C=NCCO` [RG-115511] are 0.74, 1, 1155 and 12000 nM.
Take `CCc1c(C(=O)NN(C(=O)c2ccc(Cl)cc2F)C(C)(C)C)ccc2c1OCCO2` [RG-115514]: the “27-63 assay Rel Max FI” value was found to be 0.720. Further, for the setting “average of two wells”, the “Fold Induction, 27-63 Assay, 3.3 uM” value came out at 1616 and the “Fold Induction, 27-63 Assay, 33 uM” value was found to be 1427. The EC50 under setting [1] is 170 nM.
In the same order, the values of `Cc1c(C(=O)NN(C(=O)c2cc(F)c(F)c(F)c2F)C(C)(C)C)ccc2c1CCCO2` [RG-115518] are 0.866, 1640, 1126 and 1050 nM.
In the same order, the values of `Cc1c(C(=O)NN(C(=O)c2cc(F)c(Cl)cc2Cl)C(C)(C)C)ccc2c1CCCO2` [RG-115539] are 0.595, 1076, 534 and 1180 nM.
`COc1ccc(Cl)cc1C(=O)N(NC(=O)c1ccc2c(c1C)CCCO2)C(C)(C)C` [RG-115551]: the “27-63 assay Rel Max FI” value is reported as 0.684. In addition, where the note is “average of two wells”, the “Fold Induction, 27-63 Assay, 3.3 uM” value was 1150 and the “Fold Induction, 27-63 Assay, 33 uM” value was 1068. In addition, the EC50 under setting [1] was 852 nM.
Consider `CCc1c(C(=O)NN(C(=O)c2ccc(F)c(F)c2F)C(C)(C)C)ccc2c1OCCO2` [RG-115580], for which the “27-63 assay Rel Max FI” value stood at 0.760. Moreover, for the setting “average of two wells”, the “Fold Induction, 27-63 Assay, 3.3 uM” value stood at 1104 and the “Fold Induction, 27-63 Assay, 33 uM” value came to 1031. Moreover, the EC50 under setting [1] is 375 nM.
In the same order, the values of `CCc1c(OC)cccc1C(=O)NN(C(=O)c1cc(C)cc(C)c1)C(C)(C)C=NNC(=O)C(N)=O` [RG-115597, oxamic carbazide of 2-ethyl-3-methoxy-benzoic acid N′-(3,5-dimethyl-benzoyl)-N′-(1,1-dimethyl-2-oxo-ethyl)-hydrazide] are 1.26, 2, 2065 and 9830 nM.
Take `CCc1c(OC)cccc1C(=O)NN(C(=O)c1ccc(Cl)cc1[N+](=O)[O-])C(C)(C)C` [RG-115647]: the “27-63 assay Rel Max FI” value stood at 0.505. Besides, for the setting “average of two wells”, the “Fold Induction, 27-63 Assay, 3.3 uM” value worked out at 817 and the “Fold Induction, 27-63 Assay, 33 uM” value was 815. In addition, under setting [1], the concentration giving a half-maximal response (EC50) was 372 nM.
In the same order, the values of `CCc1c(OC)cccc1C(=O)NN(C(=O)c1cc(C)cc(C)c1)C(C)(C)C=NNC(N)=O` [RG-115653, semicarbazide of 2-ethyl-3-methoxy-benzoic acid N′-(3,5-dimethyl-benzoyl)-N′-(1,1-dimethyl-2-oxo-ethyl)-hydrazide] are 0.53, 1, 832 and 19800 nM.
In the same order, the values of `Cc1ccc([N+](=O)[O-])c(C(=O)N(NC(=O)c2ccc3c(c2C)CCCO3)C(C)(C)C)c1` [RG-115664] are 0.635, 1928, 1768 and 359 nM.
For `CCc1c(OC)cccc1C(=O)NN(C(=O)c1cc(C)cc(C)c1)C(C)(C)CO[Si](C)(C)C(C)(C)C` [RG-115665, 2-ethyl-3-methoxy-benzoic acid N′-[2-(tert-butyl-dimethyl-silanyloxy)-1,1-dimethyl-ethyl]-N′-(3,5-dimethyl-benzoyl)-hydrazide], the EC50 was found to be 5490 nM, the “27-63 assay Rel Max FI” value is listed as 0.01 and the fold induction at 3.3 µM was 2.
